From patent US10214512B2, “Factor XIA inhibitors” (MERCK SHARP & DOHME CORP., priority 2015, dated 2019)

Molecular target: purified human Factor XIa (Homo sapiens (Human), UniProt P03951)
Test: Factor XIa Assay
Assay type: biochemical
Conditions: purified human Factor XIa 40 pM; substrate Z-Gly-Pro-Arg-AFC 100 μM; 50 mM HEPES pH 7.4; read-out: Human FXIa Ki
Description: The effectiveness of a compound of the present invention as an inhibitor of Coagulation Factor XIa can be determined using a relevant purified serine protease, and an appropriate synthetic substrate. The rate of hydrolysis of the chromogenic or fluorogenic substrate by the relevant serine protease was measured both in the absence and presence of compounds of the present invention. Assays were conducted at rt or at 37° C. […] A decrease in the rate of fluorescence change in the presence of inhibitor is indicative of enzyme inhibition. Such methods are known to one skilled in the art. The results of this assay are expressed as the inhibitory constant, Ki.
Factor XIa determinations were made in 50 mM HEPES buffer at pH 7.4 containing 150 mM NaCl, 5 mM CaCl2, and 0.1% PEG 8000 (polyethylene glycol; JT Baker or Fisher Scientific). Determinations were made using purified human Factor XIa at a final concentration of 40 pM (Sekisui Diagnostics) and he synthetic substrate, Z-Gly-Pro-Arg-AFC, TFA salt (Sigma #C0980) at a concentration of 100 μM.
Times required to achieve equilibration between enzyme and inhibitor were determined in control experiments. Initial velocities of product formation in the absence (Vo) or presence of inhibitor (Vi) were measured. Assuming competitive inhibition, and that unity is negligible compared Km/[S], [I]/e, and [I]/e (where [S], [I], and e respectively represent the total concentrations, of substrate, inhibitor and enzyme), the equilibrium constant (Ki) for dissociation of the inhibitor from the enzyme can be obtained from the dependence of Vo/Vi on [I] shown in the following equation.

purified human Factor XIa, sequence (P03951 388-625): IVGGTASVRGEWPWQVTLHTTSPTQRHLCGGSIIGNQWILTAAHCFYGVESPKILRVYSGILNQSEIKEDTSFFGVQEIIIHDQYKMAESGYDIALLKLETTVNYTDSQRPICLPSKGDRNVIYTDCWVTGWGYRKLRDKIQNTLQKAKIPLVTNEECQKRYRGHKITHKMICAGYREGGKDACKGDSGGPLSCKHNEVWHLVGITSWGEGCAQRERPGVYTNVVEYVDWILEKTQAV
purified human Factor XIa, sequence (P03951 19-387 partner): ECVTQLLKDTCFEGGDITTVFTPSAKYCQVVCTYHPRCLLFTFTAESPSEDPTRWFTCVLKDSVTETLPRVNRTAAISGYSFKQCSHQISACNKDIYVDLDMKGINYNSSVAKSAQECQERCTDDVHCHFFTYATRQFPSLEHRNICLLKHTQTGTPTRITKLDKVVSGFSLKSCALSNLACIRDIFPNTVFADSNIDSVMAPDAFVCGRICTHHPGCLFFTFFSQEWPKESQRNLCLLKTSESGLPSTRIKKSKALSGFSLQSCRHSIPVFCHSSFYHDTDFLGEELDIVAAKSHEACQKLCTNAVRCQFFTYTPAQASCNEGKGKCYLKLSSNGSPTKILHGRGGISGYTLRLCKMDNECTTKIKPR

Row | Ki | SMILES
1 | 167 nM | COC(=O)Nc1ccc2c(c1)NC(=O)CCCCC(c1ccc(-c3c(F)ccc(Cl)c3F)cn1)c1cc-2ncc1F (centres unmarked) [Example 58, methyl (9-(5-(3-chloro-2,6-difluorophenyl)pyridin-2-yl)-1^5-fluoro-4-oxo-3-aza-1(2,4)-pyridina-2(1,2)-benzenacyclononaphane-2^4-yl)carbamate]
2 | 160 nM | COC(=O)Nc1cc(F)c2c(c1)NC(=O)C(C)CCCC(c1ccc(-c3c(F)ccc(Cl)c3F)c[n+]1[O-])c1cccc-2c1 (single isomer, unassigned) [Example 85-d, 5-(3-Chloro-2,6-difluorophenyl)-2-(2^6-fluoro-2^4-((methoxycarbonyl)amino)-5-methyl-4-oxo-3-aza-1(1,3),2(1,2)-dibenzenacyclononaphane-9-yl)pyridine 1-oxide]
3 | 47.8 nM | O=C(C1CCCCC(c2ccc(-c3cc(Cl)ccc3-n3cnnn3)c[n+]2[O-])c2cccc(c2)-c2cc(F)ccc2N1)N1CCCC1 (single isomer, unassigned) [Example 79-a, 5-(5-Chloro-2-(1H-tetrazol-1-yl)phenyl)-2-(2^5-fluoro-4-(pyrrolidine-1-carbonyl)-3-aza-1(1,3),2(1,2)-dibenzenacyclononaphane-9-yl)pyridine 1-oxide]
4 | 115 nM | COC(=O)Nc1ccc2c(c1)NC(=O)C(C)CCCC(c1ccc(-c3c(F)ccc(Cl)c3F)c[n+]1[O-])c1ccc(F)c-2c1 (single isomer, unassigned) [Example 86-c, 5-(3-Chloro-2,6-difluorophenyl)-2-(1^6-fluoro-2^4-((methoxycarbonyl)amino)-5-methyl-4-oxo-3-aza-1(1,3),2(1,2) -dibenzenacyclononaphane-9-yl)pyridine 1-oxide]
5 | 11.4 nM | COC(=O)Nc1ccc2c(c1)NC(=O)C[C@H]1C[C@@H]1C[C@H](c1ccc(-c3c(F)cccc3F)c[n+]1[O-])c1nc-2c(C)[nH]1 (single isomer, unassigned) [Example 155]
6 | > 875 nM | O=C1CCCC[C@H](c2ccc(-c3c(F)ccc(Cl)c3F)c[n+]2[O-])c2cccc(c2)-c2c(cnn2C(F)F)N1 (single isomer, unassigned) [Example 171]
7 | 209 nM | COC(=O)Nc1ccc2c(c1)NC(=O)C(C)CCCC(c1ccc(-c3c(F)ccc(Cl)c3F)c[n+]1[O-])c1cccc-2c1 (single isomer, unassigned) [Example 50-d, 5-(3-chloro-2,6-difluorophenyl)-2-(2^4-((methoxycarbonyl)amino)-5-methyl-4-oxo-3-aza-1(1,3),2(1,2)-dinenzenacyclononaphane-9-yl)pyridine 1-oxide]
8 | 208 nM | COC(=O)Nc1ccc2c(c1)NC(=O)CCCCC(c1ccc(-c3c(-n4cc(C(F)(F)F)cn4)ccc(Cl)c3F)c[n+]1[O-])c1nc-2c[nH]1 (centres unmarked) [Example 116]
9 | 839 nM | COC(=O)Nc1ccc2c(c1)NC(=O)CCCCC(c1ccc(-c3c(F)ccc(Cl)c3F)cn1)c1ccc(F)c-2c1 (centres unmarked) [Example 54, methyl (9-(5-(3-chloro-2,6-difluorophenyl)pyridin-2-yl)-1^6-fluoro-4-oxo-3-aza-1(1,3),2(1,2)-dibenzenacyclononaphane-2^4-yl)carbamate]
10 | > 875 nM | Cn1ncc2c1-c1cccc(c1)C(c1ccc(-c3c(F)ccc(Cl)c3F)c[n+]1[O-])CCCCC(=O)N2 (centres unmarked) [Example 164, 5-(3-chloro-2,6-difluorophenyl)-2-(1^1-methyl-8-oxo-1H-9-aza-1(5,4) -pyrazola-2(1,3)-benzenacyclononaphane-3-Yl)pyridine 1-oxide]
11 | > 875 nM | COC(=O)Nc1ccc2c(c1)NC(=O)CCCCC(c1ccc(-c3c(F)ccc(Cl)c3F)cn1)c1ccc(F)c-2n1 (centres unmarked) [Example 63, methyl (9-(5-(3-chloro-2,6-difluorophenyl)pyridin-2-yl)-1^3-fluoro-4-oxo-3-aza-1(2,6)-pyridina-2(1,2)-benzenacyclononaphane-2^4-yl)carbamate]
12 | 180 nM | COC(=O)Nc1ccc2c(c1)NC(=O)CCCCC(c1ccc(-c3c(F)ccc(Cl)c3F)c[n+]1[O-])c1ccc(F)c-2n1 (centres unmarked) [Example 74, 5-(3-chloro-2,6-difluorophenyl)-2-(1^3-fluoro-2^4-((methoxycarbonyl)amino)-4-oxo-3-aza-1(2,6)-pyridina-2(1,2)-benzenacyclononaphane-9-yl)pyridine 1-oxide]
13 | 46 nM | O=C1CCCCC(O)(c2ccc(-c3cc(Cl)ccc3-n3cnnn3)c[n+]2[O-])c2nc(c[nH]2)-c2cc(F)ccc2N1 (single isomer, unassigned) [Example 107-a, (Z)-5-(5-Chloro-2-(1H-tetrazol-1-yl)phenyl)-2-(2^5-fluoro-9-hydroxy-4-oxo-1^1H-3-aza-1(4,2)-imidazola-2(1,2)-benzenacyclononaphane-9-yl)pyridine 1-oxide]
14 | 782 nM | COC(=O)Nc1ccc2c(c1)NC(=O)C(C)CCCC(c1ccc(-c3c(F)ccc(Cl)c3F)c[n+]1[O-])c1ccc(F)c-2c1 (single isomer, unassigned) [Example 86-b, 5-(3-Chloro-2,6-difluorophenyl)-2-(1^6-fluoro-2^4-((methoxycarbonyl)amino)-5-methyl-4-oxo-3-aza-1(1,3),2(1,2) -dibenzenacyclononaphane-9-yl)pyridine 1-oxide]
15 | 198 nM | COC(=O)Nc1ccc2c(c1)NC(=O)CCCC[C@H](c1ccc(-c3c(-n4cc(C(F)(F)F)cn4)ccc(Cl)c3F)c[n+]1[O-])c1nc-2c(C)[nH]1 (single isomer, unassigned) [Example 135]
16 | 22.6 nM | Cn1cc2c(n1)-c1cccc(c1)C(c1ccc(-c3c(F)ccc(Cl)c3F)c[n+]1[O-])CCCCC(=O)N2 (centres unmarked) [Example 163, 5-(3-chloro-2,6-difluorophenyl)-2-(1^1-methyl-8-oxo-1^1H-9-aza-1(3,4) -pyrazola-2(1,3)-benzenacyclononaphane-3-Yl)pyridine 1-oxide]
17 | 2.54 nM | O=C1CCCCC(c2ccc(-c3c(F)ccc(Cl)c3F)c[n+]2[O-])c2nc(c[nH]2)-c2cc(C(=O)O)ccc2N1 (single isomer, unassigned) [Example 106-a, (Z)-2-(2^5-carboxy-4-oxo-1^1H-3-aza-1(4,2)-imidazola-2(1,2) -benzenacyclononaphane-9-yl)-5-(3-chloro-2,6-difluorophenyl)pyridine 1-oxide]
18 | 83.1 nM | O=C1CCCC[C@@H](c2ccc(-c3cc(Cl)ccc3-n3cnnn3)c[n+]2[O-])c2cccc(c2)-c2cc(F)ccc2N1 [Example 2-b, (R) 5-(5-chloro-2-(1H-tetrazol-1-yl)phenyl)-2-(2^5-fluoro-4-oxo-3-aza-1(1,3),2(1,2)-dibenzenacyclononaphane-9-yl)pyridine 1-oxide]
19 | > 875 nM | COC(=O)Nc1cc(F)c2c(c1)NC(=O)C(C)CCCC(c1ccc(-c3c(F)ccc(Cl)c3F)c[n+]1[O-])c1cccc-2c1 (single isomer, unassigned) [Example 85-a, 5-(3-Chloro-2,6-difluorophenyl)-2-(2^6-fluoro-2^4-((methoxycarbonyl)amino)-5-methyl-4-oxo-3-aza-1(1,3),2(1,2)-dibenzenacyclononaphane-9-yl)pyridine 1-oxide]
20 | 168 nM | CCc1[nH]c2nc1-c1ccc(NC(=O)OC)cc1NC(=O)CCCC[C@@H]2c1ccc(-c2c(-n3cc(C(F)(F)F)cn3)ccc(Cl)c2F)c[n+]1[O-] (single isomer, unassigned) [Example 136]
21 | 270 nM | COC(=O)Nc1ccc2c(c1)NC(=O)C(C)CCCC(c1ccc(-c3c(F)ccc(Cl)c3F)c[n+]1[O-])c1cccc-2c1 (single isomer, unassigned) [Example 50-c, 5-(3-chloro-2,6-difluorophenyl)-2-(2^4-((methoxycarbonyl)amino)-5-methyl-4-oxo-3-aza-1(1,3),2(1,2)-dinenzenacyclononaphane-9-yl)pyridine 1-oxide]
22 | 9.4 nM | C[C@H]1CCC[C@H](c2ccc(-c3cc(Cl)ccc3-n3cc(Cl)nn3)c[n+]2[O-])c2cccc(c2)-c2c(cnn2C(F)F)NC1=O (single isomer, unassigned) [Example 166-c]
23 | 8.9 nM | O=C1CCCCC(c2ccc(-c3c(-n4cnnn4)ccc(Cl)c3F)cn2)c2cc(ncc2F)-c2cc(F)ccc2N1 (centres unmarked) [Example 59, 9-(5-(3-chloro-2-fluoro-6-(1h-tetrazol-1-yl)phenyl)pyridin-2-yl)-1^5,2^5-difluoro-3-aza-1(2,4)-pyridina-2(1,2)-benzenacyclononaphan-4-one]
24 | 15.6 nM | O=C1CCCCC(c2ccc(-c3c(F)ccc(Cl)c3F)cn2)c2cccc(c2)-c2cc3c(O)cc(=O)[nH]c3cc2N1 (centres unmarked) [Example 49, 3-(5-(3-chloro-2,6-difluorophenyl)pyridin-2-yl)-1^4-hydroxy-1^1,1^2-dihydro-9-aza-1 (6,7)-quinolina-2(1,3)-benzenacyclononaphane-1^2,8-dione]
25 | 195 nM | C[C@@H]1CCC[C@@H](c2ccc(-c3cc(Cl)ccc3-n3cc(Cl)nn3)c[n+]2[O-])c2cccc(c2)-c2c(cnn2C(F)F)NC1=O (single isomer, unassigned) [Example 166-b]
26 | 593 nM | COC(=O)Nc1ccc2c(c1)NC(=O)CCCCC(c1ccc(-c3c(F)ccc(Cl)c3F)cn1)c1cccc-2c1 (centres unmarked) [Example 12, methyl (9-(5-(3-chloro-2,6-difluorophenyl)pyridin-2-yl)-4-oxo-3-aza-1(1,3),2(1,2)-dibenzenacyclononaphane-2^4-yl)carbamate]
